The structures appear in SMILES notation.

For 29 molecules, EC50 and 2.1/2.2 results are on record in patent publication US11028051B2, “Tetrahydroquinoline-based bromodomain inhibitors” (St. Jude Children's Research Hospital, priority 2016, dated 2021).

Assay in all cases: competitive TR-FRET assay, BET-BD with acetylated peptide ligand
Holding throughout (assay type): binding

In one assay the target is BRD3-BD1 (Homo sapiens (Human), UniProt Q15059). Conditions: BRD3-BD1; Table 11 additional modifications; read-out: 3.1 EC50. The procedure:
(§1) Inhibitor potency was determined using a competitive TR-FRET assay as detailed herein, measuring interaction of the respective BET-BD with an acetylated peptide ligand (Table 2).

For the next assay, the target named is BRD2-BD2 (Homo sapiens (Human), UniProt P25440). Conditions: for EC50: BRD2-BD2, Table 11 additional modifications, read-out: 2.2 EC50; for 2.1/2.2: ratio of BRD2-BD1 EC50 to BRD2-BD2 EC50 (selectivity). The procedure:
as §1

For a further assay, the target named is BRDT (Homo sapiens, UniProt Q58F21). Conditions: BRDT; Table 11 additional modifications; read-out: BRDT EC50. The procedure: as §1
In another assay the target is BRD2-BD1 (Homo sapiens (Human), UniProt P25440). Conditions: BRD2-BD1; Table 11 additional modifications; read-out: 2.1 EC50. The procedure: as §1
Chain of BRD2-BD1 (P25440 74-180): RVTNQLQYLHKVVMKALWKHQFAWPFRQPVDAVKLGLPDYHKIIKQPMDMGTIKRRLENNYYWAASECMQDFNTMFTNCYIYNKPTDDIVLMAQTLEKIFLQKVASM
A further assay deals with BRD4-BD1 (Homo sapiens (Human), UniProt O60885). Conditions: BRD4-BD1; Table 11 additional modifications; read-out: 4.1 EC50. The procedure: as §1

Chain of BRD2-BD2 (P25440 344-453): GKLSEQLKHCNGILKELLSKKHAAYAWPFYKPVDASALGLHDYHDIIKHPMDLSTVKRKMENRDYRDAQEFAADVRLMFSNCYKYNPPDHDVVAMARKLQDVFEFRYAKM
Chain of BRD3-BD1 (Q15059 34-140): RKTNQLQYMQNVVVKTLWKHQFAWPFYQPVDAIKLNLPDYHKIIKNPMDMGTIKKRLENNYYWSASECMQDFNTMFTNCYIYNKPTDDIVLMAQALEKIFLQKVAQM

As for `COC(=O)c1ccc(N[C@@H]2C[C@H](C)N(C(C)=O)c3ccc(-c4cccc(OCCN5CCOCC5)c4)cc32)cc1` [compound 166], the EC50 was 0.15 µM at BRD3-BD1; 0.02 µM at BRD2-BD2; 0.28 µM at BRDT; 0.13 µM on BRD2-BD1; 0.64 µM on BRD4-BD1. In addition, the 2.1/2.2 at BRD2-BD2 is given as 6.5.
Turning to `CC(=O)Nc1cccc(-c2ccc3c(c2)[C@H](Nc2ccc(C#N)cc2)C[C@H](C)N3C(C)=O)c1` [compound 29], the EC50 stood at 0.26 µM at BRD3-BD1; 0.008 µM at BRD2-BD2; 0.3 µM at BRDT; 0.46 µM on BRD2-BD1; 1.2 µM at BRD4-BD1. Also, the 2.1/2.2 on BRD2-BD2 amounted to 58.
As to `CC(=O)N1c2ccc(-c3ccn(C)n3)cc2[C@H](Nc2ccccc2OC(F)(F)F)C[C@@H]1C` [compound 172], the EC50 amounted to 12 µM on BRD3-BD1; 0.64 µM on BRD2-BD2; 12 µM at BRDT; 8.2 µM on BRD2-BD1; 17 µM on BRD4-BD1. In addition, at BRD2-BD2, the 2.1/2.2 is listed as 6.3.
With `CC(=O)N1c2ccc(-c3cccc(N(CC4CC4)CC4CC4)c3)cc2[C@H](Nc2ccccc2OC(F)(F)F)C[C@@H]1C` [compound 152], the EC50 on BRD3-BD1 is 78 µM; on BRD2-BD2, 8.4 µM; on BRDT, above 79 µM; at BRD2-BD1, 79 µM.
For `CC(=O)Nc1cccc(-c2ccc3c(c2)[C@H](Nc2ccc(C(=O)OC(C)(C)C)cc2)C[C@H](C)N3C(C)=O)c1` [compound 176], the EC50 on BRD3-BD1 amounted to 8.5 µM; at BRD2-BD2, 0.75 µM; at BRDT, 13 µM; on BRD2-BD1, 10 µM; at BRD4-BD1, 16 µM. In addition, the 2.1/2.2 on BRD2-BD2 was 30.
On to `CC(=O)N1c2ccc(-c3cccc(NC(=O)CC(C)C)c3)cc2[C@H](NC(=O)OC(C)C)C[C@@H]1C` [compound 104], for which the EC50 at BRD3-BD1 was determined as 0.41 µM; on BRD2-BD2 it was 0.29 µM; at BRDT, 1.6 µM; at BRD2-BD1 it was 1.6 µM; on BRD4-BD1, 0.94 µM. Moreover, at BRD2-BD2, the 2.1/2.2 was determined as 7.8.
As to `COC(=O)c1ccc(N[C@@H]2C[C@H](C)N(C(C)=O)c3ccc(-c4cccc(NC(C)=O)c4)cc32)c(OC)c1` [compound 161], the EC50 at BRD3-BD1 is above 30 µM; on BRD2-BD2 it was 0.044 µM; on BRDT, 0.76 µM; at BRD2-BD1, 0.87 µM; on BRD4-BD1, above 30 µM. Further, the 2.1/2.2 on BRD2-BD2 is listed as 20.
With `CC(=O)Nc1cccc(-c2ccc3c(c2)[C@H](Nc2ccc(C(C)=O)cc2)C[C@H](C)N3C(C)=O)c1` [compound 17], the results for the concentration for a half-maximal effect (EC50) at BRD2-BD2, on BRDT and on BRD2-BD1 were 0.07 µM, 4.6 µM and 1.1 µM, respectively. In addition, at BRD2-BD2, the 2.1/2.2 came out at 16.
On to `CCCCN(CCCC)c1cccc(-c2ccc3c(c2)[C@H](Nc2ccccc2OC(F)(F)F)C[C@H](C)N3C(C)=O)c1` [compound 146], for which the EC50 at BRD3-BD1 is above 78 µM; on BRD2-BD2, 9.6 µM; at BRDT it was above 78 µM; on BRD2-BD1, 78 µM. Moreover, the 2.1/2.2 on BRD2-BD2 was 22.
As for `CC(=O)N1c2ccc(-c3cccc(NCCC(F)(F)F)c3)cc2[C@H](Nc2ccccc2OC(F)(F)F)C[C@@H]1C` [compound 153], the EC50 at BRD3-BD1 was 39 µM; on BRD2-BD2 it was 1.7 µM; at BRDT it was above 90 µM; at BRD2-BD1, 90 µM. Moreover, the 2.1/2.2 on BRD2-BD2 worked out at 8.2.
In the case of `CC(=O)Nc1ccc(-c2ccc3c(c2)[C@H](Nc2ccc(Cl)cc2)C[C@H](C)N3C(C)=O)cc1` [compound 48], the EC50 came to 1.9 µM at BRD3-BD1, 0.36 µM on BRD2-BD2, 5.3 µM on BRDT and 1.9 µM at BRD2-BD1. Besides, the 2.1/2.2 at BRD2-BD2 is listed as 5.3.
As to `COc1cc(F)ccc1N[C@@H]1C[C@H](C)N(C(C)=O)c2ccc(-c3cccc(CNCC(F)(F)F)c3)cc21` [compound 169], the EC50 on BRD3-BD1, on BRDT, at BRD2-BD1 and on BRD4-BD1 was above 30 µM in each case.
`CCCCN(CCCC)c1cccc(-c2ccc3c(c2)[C@H](Nc2ccc(C(=O)OC)cc2)C[C@H](C)N3C(C)=O)c1` [compound 143]: the EC50 at BRD3-BD1 was determined as 11 µM; on BRD2-BD2, 1.1 µM; at BRDT it was 34 µM; on BRD2-BD1, 8 µM. Further, the 2.1/2.2 at BRD2-BD2 is listed as 93.
In the same order, the values of `C#CCCNC(=O)c1ccc(N[C@@H]2C[C@H](C)N(C(C)=O)c3ccc(-c4cccc(NC(C)=O)c4)cc32)cc1` [compound 139] are 0.69 µM, 0.23 µM, 1.9 µM, 0.79 µM and 3.4.
With `CC(=O)N(C)c1cccc(-c2ccc3c(c2)[C@H](Nc2ccc(Cl)cc2)C[C@H](C)N3C(C)=O)c1` [compound 149], the EC50 at BRD3-BD1 was determined as 1 µM; on BRD2-BD2 it was 0.14 µM; at BRDT, 3.6 µM; on BRD2-BD1 it was 1.3 µM. Also, the 2.1/2.2 on BRD2-BD2 amounted to 10.
With `COc1cccc(-c2ccc3c(c2)[C@H](Nc2ccc(Cl)cc2)C[C@H](C)N3C(C)=O)c1` [compound 147], the EC50 at BRD3-BD1 amounted to 9.4 µM; at BRD2-BD2, 1.6 µM; at BRDT, 17 µM; on BRD2-BD1, 7.2 µM. In addition, the 2.1/2.2 on BRD2-BD2 was 7.4.
With `CC(=O)N1c2ccc(-c3ccnn3C)cc2[C@H](Nc2ccccc2OC(F)(F)F)C[C@@H]1C` [compound 145], the EC50 on BRD3-BD1 is 21 µM; on BRD2-BD2, 0.39 µM; on BRDT, above 58 µM; at BRD2-BD1, 19 µM. The 2.1/2.2 at BRD2-BD2 was 5.0.
In the same order, the values of `CC(=O)N1c2ccc(-c3cccc(N(CCC(C)C)CCC(C)C)c3)cc2[C@H](Nc2ccccc2OC(F)(F)F)C[C@@H]1C` [compound 148] are above 90 µM, 34 µM, above 90 µM, 90 µM and 16.
As to `CC(=O)N1c2ccc(-c3cccc(-n4cccn4)c3)cc2[C@H](Nc2ccccc2OC(F)(F)F)C[C@@H]1C` [compound 140], the EC50 is 31 µM on BRD3-BD1, 1.4 µM on BRD2-BD2, above 82 µM on BRDT and 21 µM on BRD2-BD1. For the same molecule, the 2.1/2.2 on BRD2-BD2 was determined as 22.9.
Turning to `CC(=O)N1c2ccc(-c3cccc(NCC4CCOC4)c3)cc2[C@H](Nc2ccccc2OC(F)(F)F)C[C@@H]1C` (some centres unmarked) [compound 151], the EC50 at BRD3-BD1 worked out at 8.3 µM; at BRD2-BD2 it was 0.67 µM; at BRDT, 26 µM; on BRD2-BD1 it was 14 µM. Moreover, on BRD2-BD2, the 2.1/2.2 is 49.
Turning to `CCCCCN(CCCCC)c1cccc(-c2ccc3c(c2)[C@H](Nc2ccccc2OC(F)(F)F)C[C@H](C)N3C(C)=O)c1` [compound 150], the EC50 at BRD3-BD1 is above 72 µM; at BRD2-BD2, 22 µM; at BRDT, above 72 µM; on BRD2-BD1, 72 µM. The 2.1/2.2 on BRD2-BD2 is 13.
Consider `COC(=O)c1ccc(N[C@@H]2C[C@H](C)N(C(C)=O)c3ccc(-c4cccc(NCC5CC5)c4)cc32)cc1` [compound 141], for which the EC50 was 1.7 µM at BRD3-BD1, 0.5 µM on BRD2-BD2, 5.2 µM on BRDT and 2.5 µM on BRD2-BD1. Also, the 2.1/2.2 on BRD2-BD2 worked out at 0.015.
On to `COC(=O)c1ccc(N[C@@H]2C[C@H](C)N(C(C)=O)c3ccc(-c4ccnn4C)cc32)cc1` [compound 144], for which the EC50 was 3.1 µM on BRD3-BD1, 0.29 µM on BRD2-BD2, 15 µM on BRDT and 3.8 µM at BRD2-BD1. Further, the 2.1/2.2 on BRD2-BD2 is given as 7.0.
Turning to `CC(=O)N1c2ccc(-c3cccc(NC4CCCC4)c3)cc2[C@H](Nc2ccccc2OC(F)(F)F)C[C@@H]1C` [compound 154], the half-maximal effective concentration (EC50) at BRD3-BD1 was 27 µM; on BRD2-BD2, 1.8 µM; on BRDT it was above 84 µM; on BRD2-BD1, 20 µM. In addition, the 2.1/2.2 on BRD2-BD2 stood at 4.6.
Consider `C#CCCCC(=O)Nc1cccc(-c2ccc3c(c2)[C@H](Nc2ccc(C(=O)OC)cc2)C[C@H](C)N3C(C)=O)c1` [compound 138], for which the EC50 was determined as 1.8 µM on BRD3-BD1, 0.09 µM on BRD2-BD2, 8.7 µM on BRDT and 4.6 µM at BRD2-BD1. For the same molecule, the 2.1/2.2 on BRD2-BD2 came out at 36.
As to `CCCN(CCC)c1cccc(-c2ccc3c(c2)[C@H](Nc2ccccc2OC(F)(F)F)C[C@H](C)N3C(C)=O)c1` [compound 155], the EC50 on BRD3-BD1 was 79 µM; on BRD2-BD2, 5.7 µM; on BRDT it was above 84 µM; on BRD2-BD1, 17 µM. The 2.1/2.2 at BRD2-BD2 amounted to 2.6.
Consider `CC(=O)Nc1cccc(-c2ccc3c(c2)[C@H](Nc2ccccc2C#N)C[C@H](C)N3C(C)=O)c1` [compound 194], for which, on BRD2-BD2, the EC50 came to 0.06 µM and the 2.1/2.2 is reported as 35. In addition, the EC50 at BRD2-BD1 amounted to 2.2 µM.
Turning to `CC(=O)N1c2ccc(-c3cccc(NC(=O)C(C)(C)C)c3)cc2[C@H](Nc2ccc(C#N)cc2)C[C@@H]1C` [compound 185], the figures for the EC50 on BRD2-BD2 and on BRD2-BD1 were 0.029 µM and 1.8 µM, respectively.
For the molecule `COC(=O)c1ccc(N[C@@H]2C[C@H](C)N(C(C)=O)c3ccc(-c4cccc(NCCC(C)C)c4)cc32)cc1` [compound 142], the EC50 was 2.5 µM on BRD3-BD1, 0.23 µM on BRD2-BD2, 8.3 µM at BRDT and 2.5 µM at BRD2-BD1. Also, the 2.1/2.2 at BRD2-BD2 is listed as 52.
